Experimental data taken from ChEMBL document CHEMBL3779884, “Anti-Staphylococcal Biofilm Effects of Human Cathelicidin Peptides” (ACS Med Chem Lett, 2016).
Values after ≈ are worked out from the molar mass of the structure shown. Active and inactive are the calls of the source. The calls are words filed in the database; no cut-off is given here. Where a SMILES comes first, the peptide text is derived from it. [ ]: non-standard residue; d: D form. Bip = N[C@@H](Cc1ccc(-c2ccccc2)cc1)C(=O)O

Key:
[1] = tested on: Staphylococcus aureus; assay: Antibiofilm activity against Staphylococcus aureus clinical isolate USA300 assessed as 24 hr preformed biofilm disruption at 3.1 to 25 uM incubated for 24 hrs by XTT assay; type: functional, organism-based
[2] = tested on: Staphylococcus aureus; assay: Antibiofilm activity against Staphylococcus aureus clinical isolate USA300 assessed as dead cells at 3.1 to 25 uM incubated for 24 hrs by SYTO 9/propidium iodide staining based confocal laser scanning microscopy; type: functional, organism-based
[3] = tested on: Staphylococcus aureus; assay: Antibacterial activity against Staphylococcus aureus clinical isolate USA400 incubated for 20 hrs by microplate reader analysis; type: functional; settings: isolate USA400, 20 h
[4] = tested on: Staphylococcus aureus; assay: Antibacterial activity against Staphylococcus aureus clinical isolate USA300 incubated for 20 hrs by microplate reader analysis; type: functional; settings: isolate USA300, 20 h
[5] = tested on: Staphylococcus aureus; assay: Antibiofilm activity against Staphylococcus aureus clinical isolate UAMS-1 assessed as 24 hr preformed biofilm disruption at 3.1 to 25 uM incubated for 24 hrs by XTT assay; type: functional, organism-based
[6] = tested on: Staphylococcus aureus; assay: Antibiofilm activity against Staphylococcus aureus clinical isolate USA300 assessed as disruption of 72 hr-preformed biofilm at 6.2 uM incubated for 24 hrs by XTT assay in presence of 1.6 uM vancomycin; type: functional, organism-based
[7] = tested on: Staphylococcus aureus; assay: Antibiofilm activity against Staphylococcus aureus clinical isolate USA300 assessed as disruption of 72 hr-preformed biofilm at 6.2 uM incubated for 24 hrs by XTT assay in presence of 1.6 uM daptomycin; type: functional, organism-based
[8] = tested on: Staphylococcus aureus; assay: Antibiofilm activity against Staphylococcus aureus Mu50 assessed as 24 hr preformed biofilm disruption at 3.1 to 25 uM incubated for 24 hrs by XTT assay; type: functional, organism-based
[9] = tested on: Staphylococcus aureus; assay: Antibacterial activity against Staphylococcus aureus Mu50 incubated for 20 hrs by microplate reader analysis; type: functional; settings: Mu50, 20 h
[10] = tested on: Staphylococcus aureus; assay: Antibacterial activity against Staphylococcus aureus clinical isolate USA200 incubated for 20 hrs by microplate reader analysis; type: functional; settings: isolate USA200, 20 h
[11] = tested on: HaCaT; assay: Cytotoxic activity against human HaCaT cells assessed as reduction in cell viability at 20 to 100 uM incubated for 1 hr by MTS assay; type: cell-based
[12] = tested on: Staphylococcus aureus; assay: Antibiofilm activity against Staphylococcus aureus clinical isolate USA300 assessed as inhibition of bacterial attachment at 25 uM incubated for 1 hr by XTT/PMS assay; type: functional, organism-based
[13] = tested on: Staphylococcus aureus; assay: Antibacterial activity against Staphylococcus aureus clinical isolate UAMS-1 incubated for 20 hrs by microplate reader analysis; type: functional; settings: isolate UAMS-1, 20 h
[14] = tested on: Staphylococcus aureus; assay: Antibiofilm activity against Staphylococcus aureus clinical isolate USA400 assessed as 24 hr preformed biofilm disruption at 3.1 to 25 uM incubated for 24 hrs by XTT assay; type: functional, organism-based
[15] = tested on: Staphylococcus aureus; assay: Antibiofilm activity against Staphylococcus aureus Newman assessed as 24 hr preformed biofilm disruption at 3.1 to 25 uM incubated for 24 hrs by XTT assay; type: functional, organism-based
[16] = tested on: Staphylococcus aureus; assay: Antibacterial activity against Staphylococcus aureus Newman incubated for 20 hrs by microplate reader analysis; type: functional
[17] = Hemolytic activity against human RBC after 1 hr by microplate reader analysis; type: ADME, cell-based, Erythrocyte; settings: red blood cells
[18] = tested on: Staphylococcus aureus; assay: Inhibition of biofilm formation in Staphylococcus aureus clinical isolate USA300 at 3.1 to 25 uM incubated for 24 hrs by XTT/PMS assay; type: functional, organism-based
[19] = tested on: Staphylococcus aureus; assay: Antibiofilm activity against Staphylococcus aureus clinical isolate USA200 assessed as 24 hr preformed biofilm disruption at 3.1 to 25 uM incubated for 24 hrs by XTT assay; type: functional, organism-based
[20] = tested on: Staphylococcus aureus; assay: Antibiofilm activity against Staphylococcus aureus JE2 assessed as inhibition of bacterial attachment at 3.1 to 25 uM incubated for 24 hrs by XTT/PMS assay; type: functional, organism-based
[21] = tested on: Staphylococcus aureus; assay: Antibiofilm activity against Staphylococcus aureus clinical isolate USA400 assessed as 24 hr preformed biofilm disruption at 12.5 to 25 uM incubated for 24 hrs by XTT assay; type: functional, organism-based
[22] = tested on: Staphylococcus aureus; assay: Antibiofilm activity against Staphylococcus aureus harboring […] mutant assessed as inhibition of bacterial attachment at 3.1 to 25 uM incubated for 24 hrs by XTT/PMS assay; type: functional, organism-based
[23] = tested on: Staphylococcus aureus; assay: Antibiofilm activity against Staphylococcus aureus harboring fnbA mutant assessed as 24 hr preformed biofilm disruption at 3.1 to 25 uM incubated for 24 hrs by XTT assay; type: functional, organism-based
[24] = tested on: Staphylococcus aureus; assay: Antibiofilm activity against Staphylococcus aureus harboring sasC mutant assessed as inhibition of bacterial attachment at 3.1 to 25 uM incubated for 24 hrs by XTT/PMS assay; type: functional, organism-based
[25] = tested on: Staphylococcus aureus; assay: Antibiofilm activity against Staphylococcus aureus JE2 assessed as 24 hr preformed biofilm disruption at 3.1 to 25 uM incubated for 24 hrs by XTT assay; type: functional, organism-based
[26] = tested on: Staphylococcus aureus; assay: Antibiofilm activity against Staphylococcus aureus Newman assessed as 24 hr preformed biofilm disruption at 12.5 to 25 uM incubated for 24 hrs by XTT assay; type: functional, organism-based
[27] = tested on: Staphylococcus aureus; assay: Antibiofilm activity against Staphylococcus aureus clinical isolate USA300 assessed as 24 hr preformed biofilm disruption at 12.5 to 25 uM incubated for 24 hrs by XTT assay; type: functional, organism-based
[28] = tested on: Staphylococcus aureus; assay: Antibiofilm activity against Staphylococcus aureus harboring […] mutant assessed as 24 hr preformed biofilm disruption at 3.1 to 25 uM incubated for 24 hrs by XTT assay; type: functional, organism-based
[29] = tested on: Staphylococcus aureus; assay: Antibiofilm activity against Staphylococcus aureus clinical isolate UAMS-1 assessed as 24 hr preformed biofilm disruption at 12.5 to 25 uM incubated for 24 hrs by XTT assay; type: functional, organism-based
[30] = tested on: Staphylococcus aureus; assay: Antibiofilm activity against Staphylococcus aureus clinical isolate USA200 assessed as 24 hr preformed biofilm disruption at 12.5 to 25 uM incubated for 24 hrs by XTT assay; type: functional, organism-based
[31] = tested on: Staphylococcus aureus; assay: Antibiofilm activity against Staphylococcus aureus harboring fnbA mutant assessed as inhibition of bacterial attachment at 3.1 to 25 uM incubated for 24 hrs by XTT/PMS assay; type: functional, organism-based
[32] = tested on: Staphylococcus aureus; assay: Antibiofilm activity against Staphylococcus aureus Mu50 assessed as 24 hr preformed biofilm disruption at 12.5 to 25 uM incubated for 24 hrs by XTT assay; type: functional, organism-based
[33] = tested on: Staphylococcus aureus; assay: Antibiofilm activity against Staphylococcus aureus harboring sasC mutant assessed as 24 hr preformed biofilm disruption at 3.1 to 25 uM incubated for 24 hrs by XTT assay; type: functional, organism-based
[34] = tested on: Staphylococcus aureus; assay: Antibiofilm activity against Staphylococcus aureus clinical isolate USA300 assessed as inhibition of bacterial attachment at 3.1 to 25 uM incubated for 1 hr by XTT/PMS assay; type: functional, organism-based
[35] = tested on: Staphylococcus aureus; assay: Inhibition of biofilm formation in Staphylococcus aureus clinical isolate USA300 at 6.2 to 25 uM incubated for 24 hrs by XTT/PMS assay; type: functional, organism-based
[36] = tested on: Staphylococcus aureus; assay: Inhibition of biofilm formation in Staphylococcus aureus clinical isolate USA300 at 3.1 uM incubated for 24 hrs by XTT/PMS assay relative to control; type: functional; settings: isolate USA300, 24 h

Row | Compound | Activity [1] | Activity [2] | MIC [3] [µM] | MIC [4] [µM] | Activity [5] | Activity [6] | Activity [7] | Activity [8] | MIC [9] [µM] | MIC [10] [µM] | Activity [11] | inhibition [12] | MIC [13] [µM] | Activity [14] | Activity [15] | MIC [16] [µM] | HC50 at 1 h [17] [µM] | inhibition [18] | Activity [19] | further results
1 | CC[C@H](C)[C@H](NC(=O)[C@H](CCCNC(=N)N)NC(=O)[C@H](CCC(N)=O)NC(=O)[C@@H](NC(=O)[C@@H](NC(=O)[C@H](CCCNC(=N)N)NC(=O)[C@H](CCCCN)NC(=O)[C@H](Cc1ccccc1)NC(=O)CN)[C@@H](C)CC)C(C)C)C(=O)N[C@@H](CCCCN)C(=O)N[C@@H](CC(=O)O)C(=O)N[C@@H](Cc1ccccc1)C(=O)N[C@@H](CC(C)C)C(=O)N[C@@H](CCCNC(=N)N)C(=O)N[C@@H](CC(N)=O)C(=O)N[C@@H](CC(C)C)C(=O)N[C@H](C(=O)O)C(C)C (H-GFKRIVQRIKDFLRNLV-OH) | Active | Active | 1.56 (≈ 3.28 µg/mL) | 1.56 (≈ 3.28 µg/mL) | inactive | Active | Active | Active | 1.56 (≈ 3.28 µg/mL) | 1.56 (≈ 3.28 µg/mL) | Non-toxic | Active | 3.1 (≈ 6.52 µg/mL) | Active | Active | 1.56 (≈ 3.28 µg/mL) | 120 | Active | Active | 
2 | CC(C)C[C@H](NC(=O)[C@H](Cc1ccc(-c2ccccc2)cc1)NC(=O)[C@H](CC(=O)O)NC(=O)[C@H](CCCCN)NC(=O)[C@H](CC(C)C)NC(=O)[C@H](CCCNC(=N)N)NC(=O)[C@H](CCC(N)=O)NC(=O)[C@@H](NC(=O)[C@H](CC(C)C)NC(=O)[C@H](CCCNC(=N)N)NC(=O)[C@H](CCCCN)NC(=O)[C@H](Cc1ccc(-c2ccccc2)cc1)NC(=O)CN)C(C)C)C(=O)N[C@@H](CCCNC(=N)N)C(=O)N[C@@H](CC(N)=O)C(=O)N[C@@H](CC(C)C)C(=O)N[C@H](C(N)=O)C(C)C (H-G[Bip]KRLVQRLKD[Bip]LRNLV-NH2) |  | Active | 3.1 (≈ 6.99 µg/mL) | 3.1 (≈ 6.99 µg/mL) |  | Active | Active |  | 3.1 (≈ 6.99 µg/mL) | 3.1 (≈ 6.99 µg/mL) | Non-toxic | Active | 3.1 (≈ 6.99 µg/mL) |  |  | 3.1 (≈ 6.99 µg/mL) | 120 | Active |  | inhibition [20]: Active; Activity [21]: Active; inhibition [22]: Active; Activity [23]: Active; inhibition [24]: Active; Activity [25]: Active; Activity [26]: Active; Activity [27]: Active; Activity [28]: Active; Activity [29]: Active; Activity [30]: Active; inhibition [31]: Active; Activity [32]: Active; Activity [33]: Active
3 | CC[C@H](C)[C@H](NC(=O)[C@H](CCCNC(=N)N)NC(=O)[C@H](CCC(N)=O)NC(=O)[C@@H](NC(=O)[C@@H](NC(=O)[C@@H](N)CCCNC(=N)N)[C@@H](C)CC)C(C)C)C(=O)N[C@@H](CCCCN)C(=O)N[C@@H](CC(=O)O)C(=O)N[C@@H](Cc1ccccc1)C(=O)N[C@@H](CC(C)C)C(=O)O (H-RIVQRIKDFL-OH) | inactive |  | > 50 | > 50 | inactive |  |  | inactive | > 50 | > 50 |  | Active | > 50 | inactive | inactive | > 50 |  | inactive | inactive | 
4 | CC[C@H](C)[C@H](NC(=O)[C@H](CCCCN)NC(=O)[C@H](CCC(=O)O)NC(=O)[C@H](CCCCN)NC(=O)[C@H](CO)NC(=O)[C@H](CCCCN)NC(=O)[C@H](CCCNC(=N)N)NC(=O)[C@H](Cc1ccccc1)NC(=O)[C@H](Cc1ccccc1)NC(=O)[C@H](CC(=O)O)NC(=O)CNC(=O)[C@H](CC(C)C)NC(=O)[C@@H](N)CC(C)C)C(=O)NCC(=O)N[C@@H](CCCCN)C(=O)N[C@@H](CCC(=O)O)C(=O)N[C@@H](Cc1ccccc1)C(=O)N[C@@H](CCCCN)C(=O)N[C@@H](CCCNC(=N)N)C(=O)N[C@H](C(=O)N[C@H](C(=O)N[C@@H](CCC(N)=O)C(=O)N[C@@H](CCCNC(=N)N)C(=O)N[C@H](C(=O)N[C@@H](CCCCN)C(=O)N[C@@H](CC(=O)O)C(=O)N[C@@H](Cc1ccccc1)C(=O)N[C@@H](CC(C)C)C(=O)N[C@@H](CCCNC(=N)N)C(=O)N[C@@H](CC(N)=O)C(=O)N[C@@H](CC(C)C)C(=O)N[C@H](C(=O)N1CCC[C@H]1C(=O)N[C@@H](CCCNC(=N)N)C(=O)N[C@H](C(=O)N[C@@H](CCC(=O)O)C(=O)N[C@@H](CO)C(=O)O)[C@@H](C)O)C(C)C)[C@@H](C)CC)C(C)C)[C@@H](C)CC [CATHELICIDIN] | inactive |  | 6.25 (≈ 28.1 µg/mL) | 12.5 (≈ 56.2 µg/mL) | inactive |  |  | inactive | > 50 | > 50 |  |  | > 50 | inactive | inactive | > 50 |  |  | inactive | inhibition [34]: inactive; inhibition [35]: inactive; inhibition at 3.1 µM [36]: 50%
